# From patent publication US20240279215A1 (Cytokinetics, Incorporated, priority 2022, published 2024)
# Biological target: human NAMPT (Homo sapiens (Human), UniProt P43490)
# Assay: NMN fluorescence biochemical assay (human recombinant NAMPT enzyme assay)
# Method in brief: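 NMN formed was detected by fluorescence (Ex/Em 355/460 nm) after acetophenone, KOH and formic acid derivatization. The cell-free reaction ran 60 min at ambient temperature with 6 nM human NAMPT, 150 μM nicotinamide, 20 μM PRPP, 2.5 mM ATP, pH 7.2 HEPES, and compound dose responses.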
# Sequence of human NAMPT (P43490 whole entry): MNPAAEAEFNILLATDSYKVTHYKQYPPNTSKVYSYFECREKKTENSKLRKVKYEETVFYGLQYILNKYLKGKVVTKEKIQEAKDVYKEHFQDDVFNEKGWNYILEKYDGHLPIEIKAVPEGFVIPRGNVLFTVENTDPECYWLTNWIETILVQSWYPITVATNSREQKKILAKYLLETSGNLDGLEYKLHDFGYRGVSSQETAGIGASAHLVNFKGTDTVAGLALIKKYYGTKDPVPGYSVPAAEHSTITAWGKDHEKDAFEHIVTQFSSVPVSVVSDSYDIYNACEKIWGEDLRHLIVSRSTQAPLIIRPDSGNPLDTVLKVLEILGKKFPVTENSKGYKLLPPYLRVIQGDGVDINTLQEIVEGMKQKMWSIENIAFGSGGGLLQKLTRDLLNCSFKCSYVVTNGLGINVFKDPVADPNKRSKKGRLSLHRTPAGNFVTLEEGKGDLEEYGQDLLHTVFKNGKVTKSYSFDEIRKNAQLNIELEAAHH
SMILES,AC1.4 Human [µM],EC50 [µM]
"CC1(O)CCN(C(=O)Cc2ccc(NC(=O)OCc3ccc(Cl)cc3)cc2)CC1 [Compound 116, (4-chlorophenyl)methyl N-{4-[2-(4-hydroxy-4-methylpiperidin-1-yl)-2-oxoethyl]phenyl}carbamate]",0.95,6.77
"C[C@H](NC(=O)C1CCOCC1)c1ccc(NC(=O)OCc2ccc(Cl)cc2)cc1 [Compound 117, 4-chlorobenzyl (S)-(4-(1-(tetrahydro-2H-pyran-4-carboxamido)ethyl)phenyl)carbamate]",0.95,8.14
"C[C@H](NC(=O)c1cccnc1)c1ccc(NC(=O)OCc2ccc(Cl)cc2)cc1 [Compound 118, (4-chlorophenyl)methyl N-{4-[(1S)-1-(pyridin-3-ylformamido)ethyl]phenyl}carbamate]",0.95,3.13
"O=C(Nc1ccc(CC(=O)N2CCC(O)CC2)cc1)OCc1ccc(Cl)cc1 [Compound 119, (4-chlorophenyl)methyl N-{4-[2-(4-hydroxypiperidin-1-yl)-2-oxoethyl]phenyl}carbamate]",0.95,21.7
"COC(=O)N1CCC(CCc2ccc(NC(=O)OCc3cnco3)cc2)CC1 [Compound 120, methyl 4-(4-(((oxazol-5-ylmethoxy)carbonyl)amino)phenethyl)piperidine-1-carboxylate]",0.96,44.9
"C[C@H](NC(=O)C1COC1)c1ccc(NC(=O)OCc2ccc(Cl)cc2)cc1 [Compound 122, 4-chlorobenzyl (S)-(4-(1-(oxetane-3-carboxamido)ethyl)phenyl)carbamate]",0.97,6.46
"CC1(C)CCN(Cc2ccc(NC(=O)OCc3ccc(Cl)cc3)cc2)C1=O [Compound 123, (4-chlorophenyl)methyl N-{4-[(3,3-dimethyl-2-oxopyrrolidin-1-yl)methyl]phenyl}carbamate]",0.98,5.01
"CN1CCC(C(=O)NCc2ccc(NC(=O)OCc3ccc(Cl)cc3)cc2)CC1=O (centres unmarked) [Compound 124, (4-chlorophenyl)methyl N-(4-{[(1-methyl-2-oxopiperidin-4-yl)formamido]methyl}phenyl)carbamate]",0.98,15.3
"Cc1nc(C)c(C(=O)N[C@@H](C)c2ccc(NC(=O)OCc3ccc(Cl)cc3)cc2)o1 [Compound 125, 4-chlorobenzyl (S)-(4-(1-(2,4-dimethyloxazole-5-carboxamido)ethyl)phenyl)carbamate]",0.98,6.02
"O=C(Nc1ccc(CNC(=O)c2ccncc2)cc1)OCc1ccc(Cl)cc1 [Compound 126, (4-chlorophenyl)methyl N-{4-[(pyridin-4-ylformamido)methyl]phenyl}carbamate]",0.99,4.06
"Cc1nn(C)c(C(=O)N(C)Cc2ccc(NC(=O)OCc3ccc(Cl)cc3)cc2)c1C [Compound 127, (4-chlorophenyl)methyl N-(4-{[N-methyl-1-(2,4,5-trimethylpyrazol-3-yl)formamido]methyl}phenyl)carbamate]",1.00,7.3
"CN(Cc1ccc(NC(=O)OCc2ccc(Cl)cc2)cc1)C(=O)N1CCCC1 [Compound 128, 4-chlorobenzyl (4-((N-methylpyrrolidine-1-carboxamido)methyl)phenyl)carbamate]",1.03,4.75
"CC(C)Cn1nccc1C(=O)N[C@@H](C)c1ccc(NC(=O)OCc2ccc(Cl)cc2)cc1 [Compound 129, (4-chlorophenyl)methyl N-{4-[(1S)-1-{[2-(2-methylpropyl)pyrazol-3-yl]formamido}ethyl]phenyl}carbamate]",1.03,2.22
"CN(Cc1ccc(NC(=O)OCc2ccc(Cl)cc2)cc1)C(=O)c1cnco1 [Compound 130, (4-chlorophenyl)methyl N-(4-[(N-methyl-1-1,3-oxazol-5-ylformamido)methyl]phenyl}carbamate]",1.03,8.13
"CC(C)n1nccc1C(=O)N(C)Cc1ccc(NC(=O)OCc2ccc(Cl)cc2)cc1 [Compound 131, (4-chlorophenyl)methyl N-(4-{[1-(2-isopropylpyrazol-3-yl)-N-methylformamido]methyl}phenyl)carbamate]",1.05,2.55
"Cc1ccc(C(=O)NCc2ccc(NC(=O)OCc3ccc(C(F)F)cc3)cc2)cn1 [Compound 133, (4-(difluoro-13-methyl)phenyl)methyl (4-((6-methylnicotinamido)methyl)phenyl)carbamate]",1.07,8.6
"COC1CCN(C(=O)N(C)[C@@H](C)c2ccc(NC(=O)OCc3ccc(Cl)cc3)cc2)CC1 [Compound 134, 4-chlorobenzyl (S)-(4-(1-(4-methoxy-N-methylpiperidine-1-carboxamido)ethyl)phenyl)carbamate]",1.07,13.7

SMILES,AC1.4 Human [µM],EC50 [µM]
"COc1cnn(C)c1C(=O)NCc1ccc(NC(=O)OCc2ccc(Cl)cc2)cc1 [Compound 135, (4-chlorophenyl)methyl N-(4-{[(4-methoxy-2-methylpyrazol-3-yl)formamido]methyl}phenyl)carbamate]",1.07,3.28
"Cc1cnc(C(=O)NCc2ccc(NC(=O)OCc3ccc(Cl)cc3)cc2)cn1 [Compound 136, (4-chlorophenyl)methyl N-(4-{[(5-methylpyrazin-2-yl)formamido]methyl}phenyl)carbamate]",1.09,2.23
"CCc1cc(C(=O)N[C@@H](C)c2ccc(NC(=O)OCc3ccc(Cl)cc3)cc2)n(C)n1 [Compound 137, (4-chlorophenyl)methyl N-{4-[(1S)-1-[(5-ethyl-2-methylpyrazol-3-yl)formamido]ethyl]phenyl}carbamate]",1.11,3.83
"COc1cc(C(=O)NCc2ccc(NC(=O)OCc3ccc(Cl)cc3)cc2)n(C)n1 [Compound 138, (4-chlorophenyl)methyl N-(4-{[(5-methoxy-2-methylpyrazol-3-yl)formamido]methyl}phenyl)carbamate]",1.11,8.41
"Cc1cc(C(=O)N[C@@H](C)c2ccc(NC(=O)OCc3ccc(Cl)cc3)cc2)n(C)n1 [Compound 139, (4-chlorophenyl)methyl N-{4-[(1S)-1-[(2,5-dimethylpyrazol-3-yl)formamido]ethyl]phenyl}carbamate]",1.11,13.1
"Cc1noc(C(=O)NCc2ccc(NC(=O)OCc3ccc(Cl)cc3)cc2)c1C [Compound 140, (4-chlorophenyl)methyl N-(4-{[(3,4-dimethyl-1,2-oxazol-5-yl)formamido]methyl}phenyl)carbamate]",1.15,4.51
"Cc1nn(C)c(C(=O)N[C@@H](C)c2ccc(NC(=O)OCc3ccc(Cl)cc3)cc2)c1F [Compound 141, (4-chlorophenyl)methyl N-{4-[(1S)-1-[(4-fluoro-2,5-dimethylpyrazol-3-yl)formamido]ethyl]phenyl}carbamate]",1.17,2.24
"Cc1cnoc1C(=O)N[C@@H](C)c1ccc(NC(=O)OCc2ccc(Cl)cc2)cc1 [Compound 142, (4-chlorophenyl)methyl N-{4-[(1S)-1-[(4-methyl-1,2-oxazol-5-yl)formamido]ethyl]phenyl}carbamate]",1.17,7.35
"C[C@@H](c1ccc(NC(=O)OCc2ccc(Cl)cc2)cc1)N(C)C(=O)N1CCCC1 [Compound 143, 4-chlorobenzyl (S)-(4-(1-(N-methylpyrrolidine-1-carboxamido)ethyl)phenyl)carbamate]",1.18,10.8
"CC1CN(C(=O)N[C@@H](C)c2ccc(NC(=O)OCc3ccc(Cl)cc3)cc2)C1 [Compound 144, (4-chlorophenyl)methyl N-{4-[(1S)-1-(3-methylazetidine-1-carbonylamino)ethyl]phenyl}carbamate]",1.18,7.67
"CC1CCN(C(=O)N[C@@H](C)c2ccc(NC(=O)OCc3ccc(Cl)cc3)cc2)CC1 [Compound 145, 4-chlorobenzyl (S)-(4-(1-(4-methylpiperidine-1-carboxamido)ethyl)phenyl)carbamate]",1.19,8.23
"Cc1ncc(C(=O)NCc2ccc(NC(=O)OCc3ccc(Cl)cc3)cc2)cc1F [Compound 146, (4-chlorophenyl)methyl N-(4-{[(5-fluoro-6-methylpyridin-3-yl)formamido]methyl}phenyl)carbamate]",1.20,2.35
"O=C(Nc1ccc(CNC(=O)c2c(F)cncc2F)cc1)OCc1ccc(Cl)cc1 [Compound 147, (4-chlorophenyl)methyl N-(4-{[15.2 (3,5-difluoropyridin-4-yl)formamido]methyl}phenyl)carbamate]",1.22,5.21
"COC(=O)N1CCC(c2ccc(NC(=O)OCc3cnco3)cc2)CC1 [Compound 148, methyl 4-(4-(((oxazol-5-ylmethoxy)carbonyl)amino)phenyl)piperidine-1-carboxylate]",1.23,11.5
"C[C@H](NC(=O)c1ccnn1C)c1ccc(NC(=O)OCc2ccc(Cl)cc2)cc1 [Compound 149, (4-chlorophenyl)methyl N-{4-[(1S)-1-[(2-methylpyrazol-3-yl)formamido]ethyl]phenyl}carbamate]",1.23,7
"Cc1nocc1C(=O)N[C@@H](C)c1ccc(NC(=O)OCc2ccc(Cl)cc2)cc1 [Compound 150, (4-chlorophenyl)methyl N-{4-[(1S)-1-[(3-methyl-1,2-oxazol-4-yl)formamido]ethyl]phenyl}carbamate]",1.24,4.31
O=C(Nc1ccc(C2CCS(=O)(=O)CC2)cc1)OCc1ccc(Cl)cc1 [Compound 151],1.25,5.89
